From patent US20120121591A1 (priority 2009, published 2012)
Read-outs that look alike come from different tables or passages of the source. Positions of bridges follow the written chain, without caps; N, C: chain ends. Residues, ends and D or L forms follow the SMILES beside them.

Columns and labels:
Assay type in all cases: cell-based
[1] = test system: IFN-g secretion from T cells in human whole blood
hKv1.3 = hKv1.3 (Homo sapiens, UniProt P22001); assay: cell-based; details: Kv1.3 (IWQ) IC50 (nM, Avg)
[2] = test system: IL-2 secretion from T cells in human whole blood; details: read-out: WB (IL-2) IC50 (nM, Avg)
[3] = read-out: WB (IFNg) IC5- (nM, Avg)
[4] = read-out: WB (IFNg) IC50 (nM, Avg)

Sequence of hKv1.3 (P22001 whole entry): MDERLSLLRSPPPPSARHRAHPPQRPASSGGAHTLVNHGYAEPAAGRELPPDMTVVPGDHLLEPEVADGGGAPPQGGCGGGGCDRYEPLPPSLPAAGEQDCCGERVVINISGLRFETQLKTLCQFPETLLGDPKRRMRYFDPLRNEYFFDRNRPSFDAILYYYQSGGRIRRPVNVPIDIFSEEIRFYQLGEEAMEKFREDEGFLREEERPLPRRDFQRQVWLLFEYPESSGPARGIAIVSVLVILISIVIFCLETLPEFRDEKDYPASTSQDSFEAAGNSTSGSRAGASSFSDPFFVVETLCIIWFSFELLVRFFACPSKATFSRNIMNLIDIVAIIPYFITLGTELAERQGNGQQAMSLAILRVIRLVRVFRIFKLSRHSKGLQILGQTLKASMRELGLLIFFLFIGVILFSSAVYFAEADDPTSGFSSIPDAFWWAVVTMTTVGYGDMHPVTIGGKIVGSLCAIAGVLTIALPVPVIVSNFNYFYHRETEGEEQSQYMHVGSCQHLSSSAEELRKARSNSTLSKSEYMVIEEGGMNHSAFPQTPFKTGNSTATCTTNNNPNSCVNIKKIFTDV

SMILES | IC50 [1, 3] [nM] | IC50 (hKv1.3) [nM] | IC50 [2] [nM] | IC50 [1, 4] [nM]
CC[C@H](C)[C@@H]1NC(=O)[C@H]([C@@H](C)O)NC(=O)[C@H](CC(=O)O)NC(=O)[C@H](CCC(=O)O)NC(=O)[C@@H](NC(=O)[C@H](CO)NC(=O)[C@@H](N)CCCNC(=N)N)CSSC[C@@H](C(=O)O)NC(=O)[C@H]([C@@H](C)O)NC(=O)CNC(=O)[C@@H]2CSSC[C@@H]3NC(=O)[C@H](CCC(N)=O)NC(=O)[C@H](Cc4ccccc4)NC(=O)[C@H](C)NC(=O)[C@H]([C@@H](C)O)NC(=O)[C@H](CSSC[C@H](NC(=O)[C@H](Cc4ccccc4)NC(=O)[C@H](CO)NC(=O)[C@H](CC(C)C)NC(=O)[C@H](CCCNC(=N)N)NC(=O)[C@H](Cc4ccc(O)cc4)NC(=O)[C@H](CCCCN)NC(=O)[C@H](CCSC)NC(=O)[C@H](CO)NC(=O)[C@H](Cc4c[nH]cn4)NC(=O)[C@H](CCCCN)NC3=O)C(=O)N[C@@H](CCCNC(=N)N)C(=O)N[C@@H](CCCCN)C(=O)N[C@@H]([C@@H](C)O)C(=O)N2)NC(=O)[C@H](CCCNC(=N)N)NC(=O)[C@H](CO)NC(=O)[C@H](CCCCN)NC(=O)[C@@H]2CCCN2C1=O [[Glu4]ShK] | 0.049 | 0.07 | 0.031 | –
CC[C@H](C)[C@@H]1NC(=O)[C@@H](NC(=O)[C@H](CO)NC(=O)[C@@H](N)CCCNC(=N)N)CSSC[C@@H](C(N)=O)NC(=O)[C@H]([C@@H](C)O)NC(=O)CNC(=O)[C@@H]2CSSC[C@@H]3NC(=O)[C@H](CCCCN)NC(=O)[C@H](Cc4ccccc4)NC(=O)[C@H](C)NC(=O)[C@H]([C@@H](C)O)NC(=O)[C@H](CSSC[C@H](NC(=O)[C@H](Cc4ccccc4)NC(=O)[C@H](CO)NC(=O)[C@H](CC(C)C)NC(=O)[C@H](CCCNC(=N)N)NC(=O)[C@H](Cc4ccc(O)cc4)NC(=O)[C@H](CCCCN)NC(=O)[C@H](CCSC)NC(=O)[C@H](CO)NC(=O)[C@H](Cc4c[nH]cn4)NC(=O)[C@H](CCC(=O)O)NC3=O)C(=O)N[C@@H](CCCNC(=N)N)C(=O)N[C@@H](CCCCN)C(=O)N[C@@H]([C@@H](C)O)C(=O)N2)NC(=O)[C@H](CCCNC(=N)N)NC(=O)[C@H](CO)NC(=O)[C@H](CCCCN)NC(=O)[C@@H]2CCCN2C(=O)[C@H]([C@@H](C)CC)NC(=O)[C@H]([C@@H](C)O)NC(=O)[C@H](CC(=O)O)NC1=O [[Lys16, Glu18]ShK-amide] | – | 0.065 | 0.119 | 0.234
CC[C@H](C)[C@@H]1NC(=O)[C@@H](NC(=O)[C@H](CO)NC(=O)[C@@H](N)CCCNC(=N)N)CSSC[C@@H](C(=O)O)NC(=O)[C@H]([C@@H](C)O)NC(=O)CNC(=O)[C@@H]2CSSC[C@@H]3NC(=O)[C@H](CCC(N)=O)NC(=O)[C@H](Cc4ccccc4)NC(=O)[C@H](C)NC(=O)[C@H]([C@@H](C)O)NC(=O)[C@H](CSSC[C@H](NC(=O)[C@H](Cc4ccccc4)NC(=O)[C@H](CO)NC(=O)[C@H](CC(C)C)NC(=O)[C@H](CCCNC(=N)N)NC(=O)[C@H](Cc4ccc(O)cc4)NC(=O)[C@H](CCCCN)NC(=O)[C@H](CCSC)NC(=O)[C@H](CCC(=O)O)NC(=O)[C@H](Cc4c[nH]cn4)NC(=O)[C@H](CCCCN)NC3=O)C(=O)N[C@@H](CCCNC(=N)N)C(=O)N[C@@H](CCCCN)C(=O)N[C@@H]([C@@H](C)O)C(=O)N2)NC(=O)[C@H](CCCNC(=N)N)NC(=O)[C@H](CO)NC(=O)[C@H](CCCCN)NC(=O)[C@@H]2CCCN2C(=O)[C@H]([C@@H](C)CC)NC(=O)[C@H]([C@@H](C)O)NC(=O)[C@H](CC(=O)O)NC1=O [[Glu20]ShK] | 92 | 100 | 92 | –
CCC[C@@H]1NC(=O)[C@H](CO)NC(=O)[C@H](Cc2c[nH]cn2)NC(=O)[C@H](CCCCN)NC(=O)[C@@H]2CSSC[C@@H]3NC(=O)[C@H]([C@@H](C)O)NC(=O)[C@H](CCCCN)NC(=O)[C@H](CCCNC(=N)N)NC(=O)[C@H](CSSC[C@H](NC(=O)[C@H](CCCNC(=N)N)NC(=O)[C@H](CO)NC(=O)[C@H](CCCCN)NC(=O)[C@@H]4CCCN4C(=O)[C@H]([C@@H](C)CC)NC(=O)[C@H]([C@@H](C)O)NC(=O)[C@H](CC(=O)O)NC(=O)[C@H]([C@@H](C)CC)NC(=O)[C@@H](NC(=O)[C@H](CO)NC(=O)[C@@H](N)CCCNC(=N)N)CSSC[C@@H](C(=O)N[C@@H](CCC(=O)O)C(N)=O)NC(=O)[C@H]([C@@H](C)O)NC(=O)CNC3=O)C(=O)N[C@@H]([C@@H](C)O)C(=O)N[C@@H](C)C(=O)N[C@@H](Cc3ccccc3)C(=O)N[C@@H](CCCCN)C(=O)N2)NC(=O)[C@H](Cc2ccccc2)NC(=O)[C@H](CO)NC(=O)[C@H](CC(C)C)NC(=O)[C@H](CCCNC(=N)N)NC(=O)[C@H](Cc2ccc(O)cc2)NC(=O)[C@H](CCCCN)NC1=O [[Lys16, Nva21]ShK-Glu-amide] | – | 0.21 | 0.218 | 0.353
CC[C@H](C)[C@@H]1NC(=O)[C@@H](NC(=O)[C@H](CO)NC(=O)[C@@H](N)CCCNC(=N)N)CSSC[C@@H](C(=O)O)NC(=O)[C@H]([C@@H](C)O)NC(=O)CNC(=O)[C@@H]2CSSC[C@@H]3NC(=O)[C@H](CCC(N)=O)NC(=O)[C@H](Cc4ccccc4)NC(=O)[C@H](C)NC(=O)[C@H]([C@@H](C)O)NC(=O)[C@H](CSSC[C@H](NC(=O)[C@H](Cc4ccccc4)NC(=O)[C@H](CCCCN)NC(=O)[C@H](CC(C)C)NC(=O)[C@H](CCCNC(=N)N)NC(=O)[C@H](Cc4ccc(O)cc4)NC(=O)[C@H](CCCCN)NC(=O)[C@H](CCSC)NC(=O)[C@H](CO)NC(=O)[C@H](Cc4c[nH]cn4)NC(=O)[C@H](CCCCN)NC3=O)C(=O)N[C@@H](CCCNC(=N)N)C(=O)N[C@@H](CCCCN)C(=O)N[C@@H]([C@@H](C)O)C(=O)N2)NC(=O)[C@H](CCCNC(=N)N)NC(=O)[C@H](CO)NC(=O)[C@H](CCCCN)NC(=O)[C@@H]2CCCN2C(=O)[C@H]([C@@H](C)CC)NC(=O)[C@H]([C@@H](C)O)NC(=O)[C@H](CC(=O)O)NC1=O [[Lys26]ShK] | – | 0.115 | 0.273 | 0.495
CCC[C@@H]1NC(=O)[C@H](CO)NC(=O)[C@H](Cc2c[nH]cn2)NC(=O)[C@H](CCCCN)NC(=O)[C@@H]2CSSC[C@@H]3NC(=O)[C@H]([C@@H](C)O)NC(=O)[C@H](CCCCN)NC(=O)[C@H](CCCNC(=N)N)NC(=O)[C@H](CSSC[C@H](NC(=O)[C@H](CCCNC(=N)N)NC(=O)[C@H](CO)NC(=O)[C@H](CCCCN)NC(=O)[C@@H]4CCCN4C(=O)[C@H]([C@@H](C)CC)NC(=O)[C@H]([C@@H](C)O)NC(=O)[C@H](CC(=O)O)NC(=O)[C@H]([C@@H](C)CC)NC(=O)[C@@H](NC(=O)[C@H](CO)NC(=O)[C@@H](N)CCCNC(=N)N)CSSC[C@@H](C(=O)N[C@@H](CC(=O)O)C(N)=O)NC(=O)[C@H]([C@@H](C)O)NC(=O)CNC3=O)C(=O)N[C@@H]([C@@H](C)O)C(=O)N[C@@H](C)C(=O)N[C@@H](Cc3ccccc3)C(=O)N[C@@H](CCCCN)C(=O)N2)NC(=O)[C@H](Cc2ccccc2)NC(=O)[C@H](CO)NC(=O)[C@H](CC(C)C)NC(=O)[C@H](CCCNC(=N)N)NC(=O)[C@H](Cc2ccc(O)cc2)NC(=O)[C@H](CCCCN)NC1=O [[Lys16,Nva21]ShK-Asp-amide] | – | 0.28 | 0.255 | 0.349
CCCC[C@@H]1NC(=O)[C@H](CO)NC(=O)[C@H](Cc2c[nH]cn2)NC(=O)[C@H](CCC(=O)O)NC(=O)[C@@H]2CSSC[C@@H]3NC(=O)[C@H]([C@@H](C)O)NC(=O)[C@H](CCCCN)NC(=O)[C@H](CCCNC(=N)N)NC(=O)[C@H](CSSC[C@H](NC(=O)[C@H](CCCNC(=N)N)NC(=O)[C@H](CO)NC(=O)[C@H](CCCCN)NC(=O)[C@@H]4CCCN4C(=O)[C@H]([C@@H](C)CC)NC(=O)[C@H]([C@@H](C)O)NC(=O)[C@H](CC(=O)O)NC(=O)[C@H](CCC(=O)O)NC(=O)[C@@H](NC(=O)[C@H](CO)NC(=O)[C@@H](N)CCCNC(=N)N)CSSC[C@@H](C(N)=O)NC(=O)[C@H]([C@@H](C)O)NC(=O)CNC3=O)C(=O)N[C@@H]([C@@H](C)O)C(=O)N[C@@H](C)C(=O)N[C@@H](Cc3ccccc3)C(=O)N[C@@H](CCCCN)C(=O)N2)NC(=O)[C@H](Cc2ccccc2)NC(=O)[C@H](CO)NC(=O)[C@H](CC(C)C)NC(=O)[C@H](CCCNC(=N)N)NC(=O)[C@H](Cc2ccc(O)cc2)NC(=O)[C@H](CCCCN)NC1=O [[Glu4,18, Lys16,Nle21]ShK-amide] | – | 0.239 | 0.603 | 0.934
CC[C@H](C)[C@@H]1NC(=O)[C@H]([C@@H](C)O)NC(=O)[C@H](CC(=O)O)NC(=O)[C@H](CCC(=O)O)NC(=O)[C@@H](NC(=O)[C@H](CO)NC(=O)[C@@H](N)CCCNC(=N)N)CSSC[C@@H](C(N)=O)NC(=O)[C@H]([C@@H](C)O)NC(=O)CNC(=O)[C@@H]2CSSC[C@@H]3NC(=O)[C@H](CCCCN)NC(=O)[C@H](Cc4ccccc4)NC(=O)[C@H](C)NC(=O)[C@H]([C@@H](C)O)NC(=O)[C@H](CSSC[C@H](NC(=O)[C@H](Cc4ccccc4)NC(=O)[C@H](CO)NC(=O)[C@H](CC(C)C)NC(=O)[C@H](CCCNC(=N)N)NC(=O)[C@H](Cc4ccc(O)cc4)NC(=O)[C@H](CCCCN)NC(=O)[C@H](CCSC)NC(=O)[C@H](CO)NC(=O)[C@H](Cc4c[nH]cn4)NC(=O)[C@H](CCCNC(=N)N)NC3=O)C(=O)N[C@@H](CCCCN)C(=O)N[C@@H](CCCNC(=N)N)C(=O)N[C@@H]([C@@H](C)O)C(=O)N2)NC(=O)[C@H](CCCNC(=N)N)NC(=O)[C@H](CCC(=O)O)NC(=O)[C@H](CCC(=O)O)NC(=O)[C@@H]2CCCN2C1=O [[Glu4,9,10; Lys16,29;Arg18, 30]ShK-amide] (H-RSCEDTIPEERCTAFKCRHSMKYRLSFCKRTCGTC-NH2; disulfide 3-35, 12-28, 17-32) | – | 0.059 | 0.204 | 0.513
